Results on 33 compounds are retold here after the METLIN SMRT retention time set (Domingo-Almenara et al. 2019).

Structures are written as SMILES.

The nature of the data set: gradient 5% acetonitrile 3 min, to 50% in 2 min, to 85% in 15 min, held 3 min, 100 µL/min. The settings on record: column: Zorbax Extend-C18 2.1 x 50 mm; eluents: water / acetonitrile, 0.1% formic acid. The gist of the method: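 The mobile phases were water and acetonitrile, each with 0.1% formic acid, pumped at 100 μL/min through a Zorbax Extend-C18 column (2.1 × 50 mm, 1.8 μm). Pure standards were injected as mixtures of ~100 molecules and detected by a quadrupole time-of-flight mass spectrometer in positive and negative ionization mode. Retention time came from computationally picked adduct peaks, each inspected by hand.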
Compound `O=C(NCC1CCCCC1)c1ccc(-c2nc3cccnc3n2C2CCCCC2)cc1` gave an RP-LC retention time of 1130 s. The result for `Cc1ccc(-n2nc3c(N4CCCC(C(=O)NCCCN5CCCC5=O)C4)nnc(C)c3c2C)cc1` (stereo not drawn) reads 627 s; that for `CN(Cc1ccco1)C(=O)Cn1cccc1-c1nnc(-c2ccccc2)o1`, 919 s. The result for `CCN1CCN(c2ccc(NC(=O)c3ccc(F)cc3Cl)cn2)C1=O` reads 742 s; that for `O=C1NCCCn2cc(S(=O)(=O)N3CCN(c4ccccc4)CC3)cc21`, 724 s; that for `O=C(Cn1c(=O)cc(-c2nc(C3CC3)no2)c2ccccc21)NCCC1=CCCCC1`, 1110 s. The result for `Cn1c(=O)cnc2ccc(N3CCCC3)nc21` reads 884 s; that for `O=C(Nc1ccc(F)cc1)C1CC(=O)N(c2ccc3c(c2)CCN3C(=O)C2CC2)C1` (stereo not drawn), 775 s; that for `Cc1cc(C)n2c(Nc3ccccc3C)c(-c3ccccc3)nc2n1`, 728 s. In turn, `Cn1nccc1-c1cccc(-c2noc(CNC(=O)c3ccco3)n2)c1` showed an RP-LC retention time of 733 s. `O=C(NC1CC1)[C@@H]1C[C@H](Oc2cccnc2)CN1C(=O)c1ccoc1` yielded an RP-LC retention time of 546 s.

Regarding `CCCCN(C)C(=O)Cn1c(=O)c(S(=O)(=O)c2ccccc2)cc2cc(C)ccc21`, the RP-LC retention time was determined as 953 s. The result for `Cc1ccc(S(=O)(=O)N2CCCC(CCC(=O)NCc3ccccc3)C2)cc1` (stereo not drawn) reads 960 s. With `COc1ccc(CN2CCC3(CCC3O)CC2)cc1OC` (stereo not drawn) the figure was 562 s.

`CCNc1cc(N2CCC(CCC(=O)N3CCN(c4ncccn4)CC3)CC2)ncn1` showed an RP-LC retention time of 626 s.

With `COc1ccc(-c2ncc3c(n2)CCN(C(=O)Nc2cc(C)ccc2C)C3)cc1`, the RP-LC retention time was 660 s.

Turning to `Cn1cnc(S(=O)(=O)N2CCN(c3ccccn3)CC2)c1`, the RP-LC retention time was 536 s. The result for `COc1ccc(-c2nc3ncccn3c2Nc2cccc(Cl)c2C)cc1` reads 845 s; that for `CCc1cc(=O)n(CC(=O)N2CCN(c3ccccc3F)CC2)c(N2CCOCC2)n1`, 761 s.

Compound `CCc1ccccc1NC(=O)C1(C)Oc2cccnc2N(C(C)C)C1=O` (stereo not drawn) had an RP-LC retention time of 1010 s. The result for `COc1ccc(-c2cc3n(n2)CCCN(C(=O)c2ccc4nc[nH]c4c2)C3)cc1` reads 614 s; that for `O=C(COc1ccccc1F)Nc1nnc(-c2ccsc2)o1`, 701 s; that for `O=C(Cn1ccnc1-c1ccnc(N2CCOCC2)c1)N1CCN(c2ccccc2)CC1`, 639 s.

`Cc1cc2nn(CC(=O)Nc3cc(F)cc(F)c3)c(=O)n2c(Nc2ccccc2)n1`: the RP-LC retention time stood at 1040 s.

As to `CC(C)(C)c1nnc2n(c1=O)N=C(c1ccc(F)cc1)CS2`, the RP-LC retention time was determined as 857 s. With `COc1ccc(C(=O)Nc2ccc(-c3cn4ccc(C)nc4n3)cc2)cc1` the figure was 632 s; with `CCCNC(=O)N(C)CCc1noc(COc2ccc(Cl)cc2)n1`, 833 s. As for `CN(CCc1noc(-c2ccc(C(=O)NCCCN3CCCC3)cc2)n1)C(=O)c1ccc(F)cc1`, the RP-LC retention time is 623 s.

On to `Cc1nnc(CNC(=O)C(C)n2nnc3ccccc3c2=O)o1` (stereo not drawn), for which the RP-LC retention time amounted to 577 s.

`Cc1c(Cl)cccc1NC(=O)Cn1cnc2c(sc3nc(-c4ccccc4)ccc32)c1=O` returned an RP-LC retention time of 1070 s. Consider `Cc1sc(NC(=O)c2cccc(F)c2)nc1-c1ccccc1`, for which the RP-LC retention time is 1150 s. The result for `Cc1ccccc1CNC(=O)C1(C)CCCN(C(=O)Nc2cc(Cl)ccc2C)C1` (stereo not drawn) reads 1090 s.

Compound `Cn1cc(CCN2CCC(C(=O)NCc3ccccc3Cl)CC2)c2cccnc21` registered an RP-LC retention time of 617 s.
